In brackets after ≈: the same amount, converted by molar mass. Positions of bridges follow the written chain, without caps; N, C: chain ends. Residues, ends and D or L forms follow the SMILES beside them.

For assay [1], the system named is S. epidermidis (CI 1607BL1D39). The assay can be described thus: microbe, parasite or virus in culture. Conditions: CI 1607BL1D39, 18 h. The assay is classed as cell-based, Staphylococcus epidermidis. Here is the method: (§1) The minimum inhibitory concentration (MIC) of the Brevinin-1BW was measured in 96-well microtiter plates according to the Clinical and Laboratory Standards Institute (CLSI). The activated strains were treated with Mueller Hinton Agar (MHA) solid medium. Single colonies were picked and expanded to the logarithmic growth phase, and the solution was diluted to 2 × 10^6 CFU/mL using the McFarland turbidity standard. The MIC was determined with the two-fold dilution method. Briefly, 50 μL of Mueller Hinton (MH) medium was added to a 96-well plate in advance. Then, 50 μL of AMP solution was added to the first well, and 50 μL was pipetted into the next well after mixing using a row gun, while 50 μL was discarded from the last well. Final concentrations of Brevinin-1BW were 100, 50, 25, 12.5, 6.25, and 3.125 μg/mL. A 50 μL volume of the diluted bacterial solution was added, and the final concentration of the bacterial solution was 1 × 10^6 CFU/mL. This was then placed into a 37 °C incubator for 18 h until the next day to observe the degree of turbidity of the 96-well plate and measure the absorbance of the wells at 600 nm with a multifunctional microplate reader (SpectraMax iD5, Molecular Devices, Sunnyvale, CA, USA). The absence of turbidity and the measured concentration of absorbance being less than the opposing group was taken as the MIC. The positive control used ampicillin at the same final concentration as Brevinin-1BW, the negative control used 50 μL of MH medium mixed with 50 μL of 2 × 10^6 CFU/mL bacterial solution, and the blank contained only 100 μL of MH medium. Three replicate wells were set up for each experiment, and each experiment was repeated three times. The MIC and all concentrations above the MIC of bacterial solution coated on MHA solid medium were placed into 37 °C incubator incubation for 18 h. The lowest concentration resulting in no colony growth was taken as the minimum bactericidal concentration (MBC).

Assay [2] deals with S. haemolyticus (CI 1607BLD590). The assay can be described thus: microbe, parasite or virus in culture. Conditions: CI 1607BLD590, 18 h. It is filed as cell-based, Staphylococcus haemolyticus. Here is the method: as §1
The test system of assay [3] is C. koseri (CI 1611SED223). In words: microbe, parasite or virus in culture. The assay is classed as cell-based, Citrobacter koseri. Conditions: 18 h. Here is the method:
as §1

For a further assay, the system named is S. aureus mature biofilm. The assay can be described thus: Biofilm clearance, crystal violet. Particulars: S. aureus 24 h biofilm. It is filed as cell-based, Staphylococcus aureus. The method, then: Biofilm clearance of Brevinin-1BW was determined using a 96-well plate assay by first inoculating 100 µL of S. aureus bacterial suspension (5 × 10^5 CFU/mL) and incubating for 24 h at 37 °C. They were washed three times with sterile PBS. […] After 24 h of incubation, the cells were washed three times with sterile PBS. Methanol was added and fixed for 0.5 h and dried aseptically. A 1% crystal violet solution was added for 0.5 h and washed three times with sterilized deionized water. Absolute ethanol dissolved the biofilm. Absorbance was measured at 600 nm. Experiments were repeated four times independently.

A further assay is described as follows: DPPH radical scavenging. Particulars: at 3.125 μg/mL, 37 °C, 30 min in the dark, absorbance 517 nm; without concentration dependence. Here is the method:
DPPH^+ scavenging capacity: A 30 mL volume of […], Shanghai, China) solution was prepared with anhydrous ethanol and adjusted to reach an OD517 nm = 0.7. […] The Brevinin-1BW and DPPH solutions were mixed in equal volumes as the experimental group, incubated at 37 °C in the dark for 30 min, and then measured for the absorbance as A2. Vitamin C was used as the positive control. Its clearance rate was calculated according to the following formula: […]

Another assay is described as follows: ABTS radical scavenging. Particulars: at 200 μg/mL, room temperature, 6 min, absorbance 734 nm. The method, then: ABTS^+ scavenging capacity: A 7 mM ABTS (Med Chem Express, NJ, USA) solution and 140 mM potassium persulfate (Aladdin, Shanghai, China) solution were prepared. A 5 mL volume of ABTS was taken and mixed with 88 μL of potassium persulfate before being placed in the dark at room temperature for 14 h to form the ABTS radical stock solution. The ABTS radical stock solution was then diluted with 95% ethanol by volume to reach an OD734 nm = 0.7. Then, 10 μL of Brevinin-1BW solution was mixed with 50 μL of ABTS radical stock solution, and the resulting absorbance was measured at 734 nm for 6 min at room temperature, which was recorded as A1. The absorbance of 95% ethanol was measured as A2. The same concentration of vitamin C was used as the positive control. The clearance was calculated according to the following equation: ABTS^+ Clearance Rate%=(A2−A1)/A2×100

Another assay concerns IL-1β mRNA. The assay can be described thus: mRNA expression in LPS-treated RAW264.7 cells, real-time PCR. It is filed as cell-based, mouse. Here is the method: (§2) RAW 264.7 mouse macrophages were cultured in DMEM medium (Gibco, New York, NY, USA). containing 10% FBS (TransGen Biotech, Beijing, China) and 1% penicillin-streptomycin (Biosharp, Guangzhou, China) and were seeded into 6-well plates at a cell density of 10^5 cells/mL. After cell adhesion, 1 μg/mL LPS (Solarbio, Beijing, China) and different concentrations of Brevinin-1BW (0, 1, 2, 3, and 4 μg/mL) were incubated for 24 h. Culture supernatants were collected, and the contents of TNFα, IL-6, and IL-1β were determined with enzyme-linked immunosorbent assay (BOSTER, Wuhan, China). All cells were washed twice with precooled PBS, total cellular RNA was extracted using the RNAsimple Total RNA Extraction kit (TIANGEN, Beijing, China), and total RNA concentration and purity were determined using a Thermo Fisher NanoDropOne nucleic acid protein spectrophotometer. HiScript II 1st Strand cDNA Synthesis Kit (Vazyme, Nanjing, China) synthesized cDNA, and we performed real-time PCR using Hieff® qPCR SYBR Green Master Mix (No Rox) (YEASEN, Shanghai, China). The primer sequences for Beta-actin (β-Actin), interleukins (IL-6, IL-1β), tumor necrosis factor (TNF-α), and nitric oxide synthase (iNOS) are shown in Table 6. Cells incubated without peptide and/or LPS were used as negative control. All experiments were repeated three times.

In the next assay the test system is IL-6 mRNA. The description is as above. It is filed as cell-based, mouse. The method, then: as §2
A further assay concerns TNF-α mRNA. The assay is described as above. It is filed as cell-based, mouse. The method, then: as §2
The next assay has as its system iNOS mRNA. The description is as above. It is filed as cell-based, mouse. Here is the method:
as §2

For `CC[C@H](C)[C@@H]1NC(=O)[C@H](CCCCN)NC(=O)[C@@H](NC(=O)[C@H](Cc2ccccc2)NC(=O)[C@@H](NC(=O)[C@@H](NC(=O)[C@@H]2CCCN2C(=O)[C@H](CC(C)C)NC(=O)[C@H](Cc2ccccc2)NC(=O)[C@H](CO)NC(=O)[C@H](C)NC(=O)[C@H](C)NC(=O)[C@H](CC(C)C)NC(=O)CNC(=O)[C@H](C)NC(=O)[C@H](CC(C)C)NC(=O)[C@H](CC(C)C)NC(=O)[C@@H]2CCCN2C(=O)[C@H](CC(C)C)NC(=O)[C@@H](N)Cc2ccccc2)[C@@H](C)O)[C@@H](C)CC)CSSC[C@@H](C(=O)O)NC(=O)[C@H](CCCCN)NC(=O)[C@H](CCCNC(=N)N)NC(=O)[C@H](CO)NC1=O` [Brevinin-1BW] (H-FLPLLAGLAASFLPTIFCKISRKC-OH; disulfide 18-24), the values for the MBC in assay [1], in assay [2] and in assay [3] were 25 µg/mL (≈ 9.58 µM), 25 µg/mL (≈ 9.58 µM) and greater than 100 µg/mL, respectively. Also, the figures for the MIC in [1], in assay [2] and in assay [3] were 12.5 µg/mL (≈ 4.79 µM), 12.5 µg/mL (≈ 4.79 µM) and 50 µg/mL (≈ 19.2 µM), respectively. The “clearance rate of the mature biofilm” value is given as 50.02% in the assay with S. aureus mature biofilm (0.5 × MIC) and 60.99% in the assay with S. aureus mature biofilm (2 × MIC). Also, in “DPPH radical scavenging”, the “scavenging of DPPH radicals” value was “more than 70%”. Further, in “ABTS radical scavenging”, the ABTS radical scavenging result was “less than 20%”. In addition, the “decrease of IL-1β mRNA expression level” value in the assay with IL-1β mRNA is listed as 95.5%. Besides, the “decrease of IL-6 mRNA expression level” value with IL-6 mRNA is listed as 93.72%. For the same compound, the “decrease of TNF-α mRNA expression level” value in the assay with TNF-α mRNA turned out to be 86.94%. For the same compound, the “decrease of iNOS mRNA expression level” value in the assay on iNOS mRNA worked out at 81.37%.

(Values after publication PMC11013252, “Exploration of the Antibacterial and Anti-Inflammatory Activity of a Novel Antimicrobial Peptide Brevinin-1BW” (Molecules, 2024).)
